From patent US20260085091A1, “PEPTIDES THAT SELECTIVELY BIND TO Trop2 AND USE THEREOF” (KYUNGPOOK NATIONAL UNIVERSITY INDUSTRY-ACADEMIC COOPERATION …, priority 2022, published 2026)
Primed or numbered codes have the meaning given here. Ends that are not written are not given here. FITC′ = not defined here

Assays:
[1] = system: HeLa cervical tumor cells; assay: FITC-peptide cell binding (FIG. 6B); assay type: cell-based
KKU-213 cells [2] = assay: Flow cytometry binding of FITC-labeled peptide; assay type: cell-based, human
Method: (§1) A million cells were prepared, fixed with 4% PFA, and blocked with 1% BSA at RT for 30 min. The cells were reacted with mouse anti-Trop2 antibody at RT for 1 h with agitation. Then, cells were reacted with Alexa Fluor 488-labeled anti-mouse IgG antibody at RT for 1 h. For peptide binding, cells were reacted with FITC-labeling peptide at 4° C. for 1 h with agitation. The stained cells were fixed with 4% PFA before analysis with a flow cytometer.
(§2) To examine the binding of CSTLNVESC (SEQ ID NO: 1) peptide to cells, CSTLNVESC (SEQ ID NO: 1) peptide was tagged with FITC fluorescence dye at the carboxy terminus. […] In contrast, NSSSVDK-FITC control peptide weakly bound to both cell lines. Binding of CSTLNVESC (SEQ ID NO: 1)-FITC peptide, but not NSSSVDK-FITC peptide, to Trop2-expressing KKU-213 cells was also observed by immunofluorescence microscopic analysis (FIG. 5B).

[3] = system: Trop2-overexpressing MCF7 breast tumor cells; assay: FITC-peptide cell binding (FIG. 6B); assay type: cell-based
KKU-055 cells [4] = assay: Cell binding affinity assay using the Ligand Tracer; design: species or system human
Method: To determine the cell binding affinity of CSTLNVESC (SEQ ID NO: 1) peptide, a binding assay using the Ligand Tracer was performed. The machine continuously monitored the CSTLNVESC (SEQ ID NO: 1)-FITC peptide binding to KKU-213 or KKU-055 cells that was dose and time-dependent.

H460 lung tumor cells = assay: FITC-peptide cell binding (FIG. 6B); assay type: cell-based
[5] = system: Trop2-silenced KKU-213 cells; assay: FITC-peptide binding after Trop2 silencing with siRNAs; assay type: cell-based, human; conditions: KKU-213 transfected with Trop2 siRNAs for 24 h
Description: To prepare Trop2-overexpressing cells for biopanning, pCMV6-AC-GFP plasmid including human Trop2 gene, tacstd2, (Origene, Rockville, MD, USA) was transfected into HEK293T cells using Lipofectamine 2000 (Thermo Fisher Scientific, Waltham, MA, USA). For Trop2 silencing, KKU-213 cells were transfected with a small-interfering RNA (siRNA) against Trop2 gene (Qiagen, Venlo, Netherlands) or control siRNA (Bioneer, Oakland, CA) using Lipofectamine RNAiMAX (Thermo Fisher Scientific). Two siRNAs, siTrop21 and siTrop22 have been designed specifically to target sequences; 5′-CCCGGGATCGTTTGCAAGTAA-3 (SEQ ID NO: 4)′ and 5′-TTGCGACATTGTGAAGGCTTA-3 (SEQ ID NO: 5)′. The silencing efficiencies were analyzed by Western blots.
For co-localization assays, cells were reacted with FITC-conjugated peptide at 4° C. for 1 h and fixed with 4% PFA at RT for 10 min. […]
To further examine whether the binding of CSTLNVESC (SEQ ID NO: 1)-FITC peptide to the Trop2-overexpressing cells was mediated by Trop2, Trop2 gene expression in KKU-213 cells was silenced using Trop2 siRNAs. Trop2 expression was reduced after transfection with Trop2 siRNAs for 24 h as determined by western blotting (FIG. 5C), immunofluorescence microscopy (FIG. 5D), and flow cytometry (FIG. 5E). […]

[6] = system: Trop2-expressing KKU-213 cells; assay: Immunofluorescence microscopic analysis of FITC-peptide binding; assay type: cell-based, human
Method: For co-localization assays, cells were reacted with FITC-conjugated peptide at 4° C. for 1 h and fixed with 4% PFA at RT for 10 min. Next, cells were reacted with mouse anti-Trop2 antibody at 4° C. overnight and then with Alexa Fluor 594-labeled anti-mouse IgG antibody (Thermo Fisher Scientific) at RT for 1 h. Cells were counter-stained with DAPI and enclosed with an anti-fade agent. The slides were examined using a confocal microscope.
as §2

[7] = system: Trop2-overexpressing HEK293T cells; assay: FITC-peptide cell binding (FIG. 6A); assay type: cell-based, human
[8] = system: KKU-213 subcutaneous tumor; assay: Tumor homing assay (IVIS imaging)
Method: Four-week-old BALB/c female nude mice were purchased from Orient Bio (Seongnam, Republic of Korea). The mice were cared for and maintained in conformance with the Guidelines of the Institutional Animal Care and Use Committee (IACUC) of Kyungpook National University (permission no. 2017-0077). The mice were maintained in specific-pathogen free condition, controlled temperature (22±2° C.), humidity (50±10%), and light/dark cycle (12:12 h). Sterile tablet food, water and bedding were provided ad libitum. The mice were injected subcutaneously with approximately two million KKU-213 cells resuspended in 100 μl DMEM. When the tumor size reached 200 mm^3 after approximately 4 weeks, the mice were intravenously injected with near-infrared Flamma Fluor 675-labeled peptides. After 2 h, the signal was detected using the In Vivo Imaging System (IVIS) (PerkinElmer, Waltham, MA, USA). During the analysis the mice were anesthetized with 2.5% isoflurane in a gas chamber supplied with oxygen flowmeter 0.8 L/min. […] The frozen tissues were prepared for histological examination.
To examine the tumor homing of […] (SEQ ID NO: 1) peptide, the peptide was conjugated with Flamma 675 near-infrared dye and intravenously injected into mice bearing KKU-213 subcutaneous tumor.

[9] = Systemic side effects in treated tumor-bearing mice (body weight, blood markers); assay type: in vivo; conditions: after treatment, 10 mg/kg intravenous three times per week
Description: (§3) To exploit the use of CSTLNVESC (SEQ ID NO: 1) peptide for targeted cancer therapy, a Trop2-targeted cytotoxic peptide consisting of CSTLNVESC (SEQ ID NO: 1), RRRRRRR (SEQ ID NO: 2) (R7), and KLAKLAKKLAKLAK (SEQ ID NO: 3) (KLA) peptides was synthesized and named CSTLNVESC (SEQ ID NO: 1)-R7-KLA. R7 is a well-known cell-penetrating peptide that enhances the internalization of peptides and proteins into cells. KLA is a cytotoxic peptide that may cause damage to mitochondrial membrane of mammalian cells when introduced into cells and induce cell death. CSTLNVESC (SEQ ID NO: 1)-R7-KLA was intravenously injected into mice bearing KKU-213 tumor (10 mg/kg, three times per week, FIG. 12A). CSTLNVESC (SEQ ID NO: 1)-targeted R7-KLA peptide reduced tumor volume (FIG. 12B) and tumor weight (FIG. 12C) more efficiently than the control peptide-targeted R7-KLA or combined treatment of CSTLNVESC (SEQ ID NO: 1), R7, and KLA.

KKU-213 tumor = assay: Anti-tumor growth activity in tumor-bearing mice; assay type: in vivo; conditions: 10 mg/kg intravenous, three times per week; versus control peptide-targeted R7-KLA or combined CSTLNVESC, R7, and KLA
Description: as §3

KKU-213 cells [10] = assay: Transwell migration assay; assay type: cell-based, human; conditions: dose-dependent
Method: (§4) Serum-starved KKU-213 cells were resuspended with serum-free medium containing peptide and added to the 8.0 μm pore polycarbonate insert of a Transwell chamber (Corning Life Sciences, Tewksbury, MA, USA). For the invasion assay, the membrane was coated with 0.3 μg Matrigel matrix (Corning Life Sciences) at 37° C. for 2 h before use. Serum-containing or serum-free medium was added to the reservoir and reacted at 37° C. overnight. The migrated or invaded cells were fixed and stained with 0.1% crystal violet solution at RT for 10 min. The stained cells were counted under a light microscope.
(§5) Trop2 is involved in EMT and metastasis, and to examine whether CSTLNVESC (SEQ ID NO: 1) peptide affects cell migration and invasion, trans-well chamber assays were performed.

KKU-213 cells [11] = assay: Cytotoxicity of peptide in cholangiocarcinoma cell line; assay type: cell-based, human; conditions: 24 h, concentration up to 256 μM
Method: (§6) To examine whether CSTLNVESC (SEQ ID NO: 1) peptide affects cell survival, KKU-213 and KKU-055 cells were reacted with the peptide for 24 h.

KKU-055 cells [12] = assay: as above; assay type: cell-based, human; conditions: 24 h, concentration up to 256 μM
Method: as §6

[13] = Serum stability analysis by HPLC; assay type: in vitro ADME; conditions: mouse serum, 37° C., 24 h incubation, declined thereafter
Method: CSTLNVESC (SEQ ID NO: 1) peptide was stable until 16 h and declined thereafter (FIG. 9).

KKU-213 cells [14] = assay: Transwell invasion assay (Matrigel); assay type: cell-based, human; conditions: dose-dependent
Method: as §4, §5

KKU-055 cells [15] = assay: Flow cytometry binding of FITC-labeled peptide; assay type: cell-based, human
Method: as §1
as §2, with “CSTLNVESC” left out

[16] = molecular target: T1, Trop2 (trophoblast antigen 2) expressed on human tumor cell lines (human, UniProt P09758 27-323); assay: Ligand Tracer, real-time binding of FITC-peptide to KKU-213 cells
T1 construct: whole, on cells; Endogenous membrane glycoprotein; also called tacstd2; Trop2-positive KKU-213 cells
T1 sequence (looked up): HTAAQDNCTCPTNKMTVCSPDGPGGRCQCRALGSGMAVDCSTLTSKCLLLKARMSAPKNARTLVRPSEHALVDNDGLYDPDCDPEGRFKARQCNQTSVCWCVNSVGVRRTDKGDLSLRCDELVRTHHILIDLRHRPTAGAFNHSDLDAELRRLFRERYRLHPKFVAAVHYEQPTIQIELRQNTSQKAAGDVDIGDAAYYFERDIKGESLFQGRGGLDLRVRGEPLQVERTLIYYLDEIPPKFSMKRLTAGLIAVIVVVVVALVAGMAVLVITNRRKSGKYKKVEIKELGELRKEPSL
Method: To determine the cell binding affinity of […] (SEQ ID NO: 1) peptide, a binding assay using the Ligand Tracer was performed.

Which results are given for “CSTLNVESC (SEQ ID NO: 1)-FITC (CSTLNVESC-{FITC′}; cysteine pairing not given here) [… peptide tagged with FITC fluorescence dye at the carboxy terminus]”?
binding to cells [1]: selectively bound; binding to cells (flow cytometry) (KKU-213 cells [2]): bound to KKU-213 cells at higher levels than to KKU-055 cells; binding to cells [3]: selectively bound; binding (Ligand Tracer) (KKU-055 cells [4]): hardly detected; binding to cells (H460 lung tumor cells): selectively bound; binding to Trop2-silenced cells [5]: reduced; binding to cells (immunofluorescence microscopy) [6]: observed; binding to cells [7]: selectively bound

What does the source list for “CSTLNVESC (SEQ ID NO: 1)-Flamma 675: CSTLNVESC peptide conjugated with Flamma 675 near-infrared dye (cysteine pairing not given here; also: conjugated with Flamma 675 near-infrared dye, site not given here)”?
accumulation in tumor, ex vivo imaging and average photons in isolated organs ([8]; mouse, in vivo): accumulation; average photons in tumor ([8]; mouse, in vivo): higher than those of the control peptide; tumor homing, whole-body imaging ([8]; mouse, in vivo, iv): homed to tumor more efficiently than the control peptide

Which results are given for “CSTLNVESC (SEQ ID NO: 1)-R7-KLA: Trop2-targeted cytotoxic peptide consisting of CSTLNVESC, RRRRRRR (R7), and KLAKLAKKLAKLAK (KLA) peptides (CSTLNVESCRRRRRRRKLAKLAKKLAKLAK)”?
level of kidney function marker BUN [9]: within normal ranges; level of kidney function marker creatinine [9]: within normal ranges; level of liver function enzyme ALP [9]: within normal ranges; level of liver function enzyme ALT [9]: within normal ranges; level of liver function enzyme AST [9]: within normal ranges; tumor volume (KKU-213 tumor): reduced; tumor weight (KKU-213 tumor): reduced

Which results are given for CSTLNVESC [CSTLNVESC (SEQ ID NO: 1)]?
serum-induced migration (KKU-213 cells [10]): inhibited; cytotoxicity (KKU-213 cells [11]): No cytotoxicity; cytotoxicity (KKU-055 cells [12]): No cytotoxicity; time until which peptide was stable in serum [13]: 16 h; serum-induced invasion (KKU-213 cells [14]): inhibited; accumulation and co-localization with Trop2 in tumor tissues (immunofluorescence) ([8]; anti-Trop2 antibody staining of tumor tissue): accumulated and co-localized with Trop2 in tumor tissues; average photons in other organs, versus control peptide ([8]; isolated organs except kidney): similar

With “NSSSVDK-FITC: FITC-labeled NSSSVDK control peptide (also: FITC label, site not given here) [reference compound]” as the molecule, how does the “binding to cells (flow cytometry)” value (KKU-213 cells [2]) read?
The value was “weakly bound”.

What about the “binding to cells (flow cytometry)” value (KKU-055 cells [15]) of the same molecule?
Its value is “weakly bound”.

B1: CSTLNVESC (SEQ ID NO: 1)-FITC peptide (peptide)
peptide: CSTLNVESC-{FITC′}
modifications: cysteine pairing not given here
notes: Synthetic peptide (Fmoc), from a CX7C T7 phage library; also called FITC-conjugated peptide
For B1, which Kd [16] is on record?
The Kd was 5.21 µM.
